Measurements as given in paper PMC7191050 (Molecules and Cells, 2020).

Columns and labels:
Assay type in all cases: binding
[1] = molecular target: T1, Ca IleRS (isoleucyl-tRNA synthetase) (Candida albicans, UniProt Q59RI1); assay: X-ray crystal structure at […] Å
T1 sequence (Q59RI1 1-856): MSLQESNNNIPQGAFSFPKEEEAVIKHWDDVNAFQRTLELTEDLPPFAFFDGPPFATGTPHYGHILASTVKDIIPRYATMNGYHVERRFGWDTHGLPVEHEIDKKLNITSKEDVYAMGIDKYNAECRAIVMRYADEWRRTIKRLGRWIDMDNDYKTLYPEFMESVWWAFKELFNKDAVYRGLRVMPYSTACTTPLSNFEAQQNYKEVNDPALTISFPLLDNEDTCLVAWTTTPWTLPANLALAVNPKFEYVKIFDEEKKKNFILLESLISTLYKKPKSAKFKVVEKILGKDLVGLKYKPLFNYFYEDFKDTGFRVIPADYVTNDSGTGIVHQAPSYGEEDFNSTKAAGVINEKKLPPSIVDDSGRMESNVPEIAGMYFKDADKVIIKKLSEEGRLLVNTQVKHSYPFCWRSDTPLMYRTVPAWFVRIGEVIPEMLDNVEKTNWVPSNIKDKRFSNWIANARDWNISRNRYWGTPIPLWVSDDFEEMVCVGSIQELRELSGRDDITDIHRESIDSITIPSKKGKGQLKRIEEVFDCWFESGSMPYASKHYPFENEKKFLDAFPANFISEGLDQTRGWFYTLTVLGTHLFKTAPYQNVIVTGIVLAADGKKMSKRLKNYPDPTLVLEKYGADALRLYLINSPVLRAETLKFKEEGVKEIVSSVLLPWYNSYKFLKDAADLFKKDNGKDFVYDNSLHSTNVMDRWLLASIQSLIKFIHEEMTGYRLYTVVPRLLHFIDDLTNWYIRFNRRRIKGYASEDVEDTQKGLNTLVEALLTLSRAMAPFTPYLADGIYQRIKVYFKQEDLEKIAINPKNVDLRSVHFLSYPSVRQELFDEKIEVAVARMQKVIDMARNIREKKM

[2] = molecular target: T2, Ca IleRS (isoleucyl-tRNA synthetase) (Candida albicans, UniProt Q59RI1); assay: microscale thermophoresis
T2 sequence (Q59RI1 1-1088): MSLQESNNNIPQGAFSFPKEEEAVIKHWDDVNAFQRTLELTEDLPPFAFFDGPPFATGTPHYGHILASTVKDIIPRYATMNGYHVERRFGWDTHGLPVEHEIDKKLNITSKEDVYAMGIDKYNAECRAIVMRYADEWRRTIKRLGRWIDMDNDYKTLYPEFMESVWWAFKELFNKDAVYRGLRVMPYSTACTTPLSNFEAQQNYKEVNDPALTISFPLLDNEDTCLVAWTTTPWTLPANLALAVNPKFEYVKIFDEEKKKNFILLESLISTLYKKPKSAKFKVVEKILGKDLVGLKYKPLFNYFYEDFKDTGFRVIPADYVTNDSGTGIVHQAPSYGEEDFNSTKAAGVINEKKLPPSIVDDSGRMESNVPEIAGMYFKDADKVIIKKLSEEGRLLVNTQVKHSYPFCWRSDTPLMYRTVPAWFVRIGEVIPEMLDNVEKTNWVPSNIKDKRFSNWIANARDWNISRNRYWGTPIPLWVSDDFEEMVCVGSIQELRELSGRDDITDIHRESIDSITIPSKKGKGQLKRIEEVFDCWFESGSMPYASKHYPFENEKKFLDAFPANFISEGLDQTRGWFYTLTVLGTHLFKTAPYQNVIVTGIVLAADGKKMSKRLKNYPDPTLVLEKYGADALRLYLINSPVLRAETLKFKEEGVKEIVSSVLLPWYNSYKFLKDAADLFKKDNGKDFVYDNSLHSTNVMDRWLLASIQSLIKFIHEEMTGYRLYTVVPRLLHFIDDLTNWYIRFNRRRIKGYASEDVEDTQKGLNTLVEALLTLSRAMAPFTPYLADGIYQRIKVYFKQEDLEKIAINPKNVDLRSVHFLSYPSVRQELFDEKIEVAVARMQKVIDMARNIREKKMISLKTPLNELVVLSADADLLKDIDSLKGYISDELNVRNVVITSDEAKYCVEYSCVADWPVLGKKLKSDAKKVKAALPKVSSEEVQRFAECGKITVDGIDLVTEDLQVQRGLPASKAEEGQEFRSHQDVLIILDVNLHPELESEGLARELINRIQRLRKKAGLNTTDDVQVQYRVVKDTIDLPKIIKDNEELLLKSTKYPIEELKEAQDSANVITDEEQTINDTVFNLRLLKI

[3] = molecular target: T3, Ca IleRS mutant (isoleucyl-tRNA synthetase) (Candida albicans, UniProt Q59RI1, I601F/T599H); assay: microscale thermophoresis
T3 sequence (Q59RI1 1-1088 T599H/I601F): T2 sequence (Q59RI1 1-1088)

## CC[C@H](C)[C@H](N)C(=O)OP(=O)(O)OC[C@H]1O[C@@H](n2cnc3c(N)ncnc32)[C@H](O)[C@@H]1O [Ile-AMP]
[1]
  X-ray crystal structure at 2.9 Å (ligand co-purified, none added): The crystal structure of Ca IleRS revealed clear electron density for Ile-AMP at the synthetic active site

## C/C(=C\C(=O)OCCCCCCCCC(=O)O)C[C@@H]1OC[C@H](C[C@@H]2O[C@H]2[C@@H](C)[C@H](C)O)[C@@H](O)[C@H]1O [mupirocin]
[2]
  Kd: 103 to 111 µM
[3]
  Kd: 103 to 111 µM
